According to patent US20080069827A1, “miRNA of HSV-LAT and uses thereof” (priority 2006, published 2008):

Legend:
Assay type in all cases: cell-based
SY5Y cells = assay: Apoptosis assay (AnnexinV FITC staining after cisplatin or etoposide) in SY5Y cells; details: cisplatin 24 h post transfection, compared to control
Protocol: (§1) 24 hours post-transfection cells were treated with cisplatin (10 µM) or etoposide (1-100 μM), followed by staining with AnnexinV FITC (BD Biosciences). Cells showing FITC staining, loss of cell volume, loss of refractility, and membrane blebbing were scored as apoptotic. At least 500 cells were counted in each well.
as §1, with “μM)” for “µM)”, “([…]” for “(1-100”, “well. The data represent mean±S.D. from at least three independent experiments.” for “well.”

HeLa cells = assay: Apoptosis assay (AnnexinV FITC staining after cisplatin or etoposide) in HeLa cells; details: cisplatin 24 h post transfection, compared to control miRNA
Protocol: as §1
as §1, with “μM)” for “µM)”, “([…]” for “(1-100”, “well. The data represent mean±S.D. from at least three independent experiments.” for “well.”

3′UTR of TGF-β = assay: Renilla luciferase reporter with 3′UTR / mirLAT target site of TGF-β in SY5Y cells
Protocol: (§2) Cells were co-transfected with pCDNA or PstMlu (1 μg) and the respective reporter constructs (500 ng) along with pSV-βgal (10 ng). For induction of TGF-p signaling, 24 h following transfection the cells were treated with 10 ng/ml of recombinant TGF-β1 protein (R&D systems). Reporter activity was measured using a appropriate assay kits (promega).
(§3) SY5Y cells were maintained in RPMI medium with 10% fetal calf serum and antibiotics. HeLa cells were grown in DMEM medium supplemented with 5% fetal calf serum and antibiotics. Plasmids having the PstMlu fragment of LAT and its deletion mutant ΔSty have been described. GFP-shRNA pSilencer plasmid was a kind gift from Dr Kuan-Teh Jeang, NIH, USA. The SBE4-Luc construct was a kind gift from Dr Anita Roberts, NIH, USA. The pGL3-control and pSV-βgal plasmids were obtained from Promega. The pRL-TK vector was obtained from Dr Zissimos Mourelatos, University of Pennsylvannia, USA. […] Recombinants were scored for reversion of deletion in ΔSty resulting in virus which is genetically similar to wild type virus. […]
(§4) Cells were co-transfected with pCDNA or PstMlu (1 μg) and the respective reporter constructs (500 ng) along with pSV-βgal (100 ng). […] Luciferase activity was measured using a renilla or firefly Luciferase assay kit (promega). β-galactosidase activity was determined in all lysates (promega) according to manufacturer's instructions. […]

3′UTR of SMAD-3 = assay: Renilla luciferase reporter with 3′UTR / mirLAT target site of SMAD-3 in SY5Y cells
Protocol: as §2, §3, §4

[1] = system: TGF-β/SMAD-dependent transcription; assay: SBE4-Luc TGF-β responsive reporter assay in SY5Y cells; details: 10 ng/ml recombinant TGF-β1
Protocol: as §2
Cells were co-transfected with pCDNA or PstMlu (1 μg) and the respective reporter constructs (500 ng) along with pSV-βgal (100 ng). For induction of TGF-β signaling, 24 h following transfection the cells were treated with 10 ng/ml of recombinant TGF-β 1 protein (R&D systems) for 12-16 hours at 37° C. in serum free media. Cells were lysed using the reporter lysis buffer (promega). Luciferase activity was measured using a renilla or firefly Luciferase assay kit (promega). β-galactosidase activity was determined in all lysates (promega) according to manufacturer's instructions. The Luciferase activity in all samples was normalized to the amount of β-galactosidase activity.

TGF-β = TGF-β expression (RT-PCR, latent TGF-β1 ELISpot); details: SY5Y cells
Protocol: (§5) RNA was isolated using Trizol reagent (Invitrogen). RNA was reverse transcribed using Superscript II RT enzyme (Invitrogen). Northern blot analysis of 50-60 μg total RNA was done as described previously. Western blot analysis was performed on whole cell lysates using Dicer polyclonal antibody and β-actin antibody (Amersham). SMAD-3 and TGF-β receptor I antibodies were from Abcam.
(§6) RNA was isolated using Trizol reagent according to the manufacturer's instruction. RNA was reverse transcribed using Superscript II RT enzyme (Invitrogen). Dicer, TGF-β 1, SMAD-3, TGF-β receptor I and GAPDH cDNA were amplified using gene specific primers. Northern blot analysis of 50-60 μg total RNA was done. Radioactive probes were generated using Starfire oligonucleotide labeling system (IDT). Western blot analysis was performed on whole cell lysates using Dicer polyclonal antibody, a kind gift from Dr Ramin Shiekhattar, Wistar Institute, Philadelphia, USA and β-actin antibody (Amersham). SMAD-3 and TGF-β receptor I antibodies were from Abcam. […] Synthetic RNA molecule corresponding to the mirLAT pre-miRNA (Dhramacon) was radiolabelled by polynucleotide kinase reaction (Invitrogen), column purified and incubated with 2 U Recombinant Dicer enzyme (Stratagene) at 37° C. for 16 hours and analyzed by gel electrophoresis and exposure to a phosphor imager screen.

SMAD-3 = SMAD-3 expression (RT-PCR, Western blot); details: SY5Y cells
Protocol: as §5, §6

[2] = mutant target site that disrupts mirLAT binding
[3] = single copy of wild-type mirLAT target site

Substance	cisplatin-induced apoptosis (percentage apoptosis) (SY5Y cells)	cisplatin-induced apoptosis (percentage apoptosis) (HeLa cells)	luciferase activity, mutant TGF-β target site construct (3′UTR of TGF-β; [2])	reduction in luciferase activity, wild-type TGF-β target site construct (3′UTR of TGF-β; [3])	luciferase activity, mutant SMAD-3 target site construct (3′UTR of SMAD-3; [2])	reduction in luciferase activity, wild-type SMAD-3 target site construct (3′UTR of SMAD-3; [3])	TGF-β mediated induction of SBE4-Luc reporter [1]	mRNA levels / expression of TGF-β (TGF-β)	mRNA levels / expression of SMAD-3 (SMAD-3)
5′-GUGGCGGCCCGGCCCGGGGCCTT-3′ [mirLAT]	significant reduction in apoptosis	significant reduction in apoptosis	does not show any significant decrease in luciferase activity	up to 90%	does not show any significant decrease in luciferase activity	up to 90%	significant reduction in TGF-β mediated induction	–	–
CCAACUAUUGCUUCAGCUCTT (chemistry not given here) [TGF-β siRNA, siRNA directed against TGF-β (Ambion)]	confers resistance to apoptosis	–	–	–	–	–	–	inhibited	–
GCACAUAAUAACUUGGACCTT (chemistry not given here) [SMAD-3 siRNA, siRNA directed against SMAD-3 (Ambion)]	confers resistance to apoptosis	–	–	–	–	–	–	–	inhibited
